Source: ChEMBL document CHEMBL3991601, “The target landscape of clinical kinase drugs” (Science, 2017)
Activity calls are given as the source filed them. Cut-off read from the data, not from the text of the source, for most assays here: actives have a measured Kd and inactives only a lower limit.

Legend:
[1] = target: Protein-tyrosine kinase 2-beta (Homo sapiens, UniProt Q14289)
[2] = target: T1, Ephrin type-B receptor 4 (Homo sapiens, UniProt P54760)
T1 sequence (P54760 whole entry): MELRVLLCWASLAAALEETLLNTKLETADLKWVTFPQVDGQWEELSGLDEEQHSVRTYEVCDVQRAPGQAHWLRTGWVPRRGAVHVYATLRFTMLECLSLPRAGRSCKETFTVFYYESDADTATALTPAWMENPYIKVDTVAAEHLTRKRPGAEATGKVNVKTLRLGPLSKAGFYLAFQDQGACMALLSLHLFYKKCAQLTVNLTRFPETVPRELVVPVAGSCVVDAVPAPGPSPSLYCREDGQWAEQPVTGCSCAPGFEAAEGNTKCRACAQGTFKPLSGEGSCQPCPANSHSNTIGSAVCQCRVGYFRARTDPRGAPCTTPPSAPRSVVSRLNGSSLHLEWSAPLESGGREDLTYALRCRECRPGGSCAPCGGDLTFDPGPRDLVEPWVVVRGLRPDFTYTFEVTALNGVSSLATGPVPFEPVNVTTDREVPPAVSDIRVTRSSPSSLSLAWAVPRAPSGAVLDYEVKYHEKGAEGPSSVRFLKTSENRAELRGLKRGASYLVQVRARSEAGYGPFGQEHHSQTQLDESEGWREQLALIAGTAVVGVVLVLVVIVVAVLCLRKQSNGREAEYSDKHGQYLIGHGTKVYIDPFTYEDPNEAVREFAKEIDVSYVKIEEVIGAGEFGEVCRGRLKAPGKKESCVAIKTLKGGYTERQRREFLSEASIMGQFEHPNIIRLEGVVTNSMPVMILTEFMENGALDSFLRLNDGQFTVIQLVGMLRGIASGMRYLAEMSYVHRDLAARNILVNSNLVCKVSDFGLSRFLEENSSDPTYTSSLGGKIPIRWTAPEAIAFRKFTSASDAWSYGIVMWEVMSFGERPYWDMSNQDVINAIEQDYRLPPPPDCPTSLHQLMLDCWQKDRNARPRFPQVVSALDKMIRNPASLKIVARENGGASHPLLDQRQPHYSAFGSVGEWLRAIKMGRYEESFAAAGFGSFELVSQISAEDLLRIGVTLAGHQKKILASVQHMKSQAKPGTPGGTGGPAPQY

[3] = target: Glycogen synthase kinase-3 alpha (Homo sapiens, UniProt P49840)
[4] = target: DNA topoisomerase 2-beta (Homo sapiens, UniProt Q02880)
[5] = target: Ephrin type-A receptor 7 (Homo sapiens, UniProt Q15375)
[6] = target: Ras-related protein Rab-6A (Homo sapiens, UniProt P20340)
[7] = target: T2, Acyl-CoA dehydrogenase family member 10 (Homo sapiens, UniProt Q6JQN1)
T2 sequence (Q6JQN1 whole entry): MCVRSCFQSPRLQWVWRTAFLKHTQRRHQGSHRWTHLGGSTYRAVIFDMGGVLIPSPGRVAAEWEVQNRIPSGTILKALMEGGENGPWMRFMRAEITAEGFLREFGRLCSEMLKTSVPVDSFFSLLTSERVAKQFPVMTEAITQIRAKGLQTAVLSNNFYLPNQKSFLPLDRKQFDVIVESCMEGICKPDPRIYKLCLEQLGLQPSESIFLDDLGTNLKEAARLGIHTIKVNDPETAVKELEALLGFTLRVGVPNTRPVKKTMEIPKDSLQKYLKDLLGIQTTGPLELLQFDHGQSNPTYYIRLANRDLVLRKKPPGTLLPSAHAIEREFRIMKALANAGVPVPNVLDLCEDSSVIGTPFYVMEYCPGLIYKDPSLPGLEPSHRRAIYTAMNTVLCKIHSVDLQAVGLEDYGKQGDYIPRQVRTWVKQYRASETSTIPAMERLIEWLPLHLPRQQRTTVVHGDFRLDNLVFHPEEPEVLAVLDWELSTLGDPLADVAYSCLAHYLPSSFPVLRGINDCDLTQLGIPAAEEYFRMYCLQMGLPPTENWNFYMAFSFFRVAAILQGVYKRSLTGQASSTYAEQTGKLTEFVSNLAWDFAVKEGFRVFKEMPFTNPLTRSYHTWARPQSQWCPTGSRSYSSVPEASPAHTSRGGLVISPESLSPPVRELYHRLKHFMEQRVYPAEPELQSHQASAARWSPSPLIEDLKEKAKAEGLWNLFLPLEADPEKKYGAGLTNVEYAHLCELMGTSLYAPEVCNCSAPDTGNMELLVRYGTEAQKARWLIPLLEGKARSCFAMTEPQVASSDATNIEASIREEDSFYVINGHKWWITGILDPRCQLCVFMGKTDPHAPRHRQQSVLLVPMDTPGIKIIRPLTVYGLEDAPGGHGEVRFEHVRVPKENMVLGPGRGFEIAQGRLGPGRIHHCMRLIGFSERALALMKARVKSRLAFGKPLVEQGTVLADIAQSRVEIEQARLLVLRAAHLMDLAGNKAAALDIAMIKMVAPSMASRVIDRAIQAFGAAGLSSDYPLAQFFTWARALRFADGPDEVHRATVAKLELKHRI

[8] = target: Dual specificity tyrosine-phosphorylation-regulated kinase 1A (Homo sapiens, UniProt Q13627)
[9] = target: Casein kinase I isoform delta (Homo sapiens, UniProt P48730)
[10] = target: T3, MAP kinase-activated protein kinase 5 (Homo sapiens, UniProt Q8IW41)
T3 sequence (Q8IW41 whole entry): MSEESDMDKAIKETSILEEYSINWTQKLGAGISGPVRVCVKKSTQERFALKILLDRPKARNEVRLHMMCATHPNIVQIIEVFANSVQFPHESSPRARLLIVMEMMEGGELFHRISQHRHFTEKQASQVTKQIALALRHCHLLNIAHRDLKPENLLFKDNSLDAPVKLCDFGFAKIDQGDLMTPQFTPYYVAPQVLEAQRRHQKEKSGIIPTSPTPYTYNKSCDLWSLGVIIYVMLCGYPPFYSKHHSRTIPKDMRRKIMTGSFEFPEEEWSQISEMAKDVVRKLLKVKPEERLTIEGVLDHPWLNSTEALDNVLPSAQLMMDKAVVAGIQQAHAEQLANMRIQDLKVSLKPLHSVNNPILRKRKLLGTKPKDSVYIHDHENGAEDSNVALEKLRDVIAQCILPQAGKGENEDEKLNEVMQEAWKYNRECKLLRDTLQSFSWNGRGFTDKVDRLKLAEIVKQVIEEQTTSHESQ

[11] = target: Cyclin-dependent kinase 4 (Homo sapiens, UniProt P11802)
Note: in the data inactive means no Kd found up to 30 µM.

Sequence of Casein kinase I isoform delta (P48730 whole entry, canonical isoform): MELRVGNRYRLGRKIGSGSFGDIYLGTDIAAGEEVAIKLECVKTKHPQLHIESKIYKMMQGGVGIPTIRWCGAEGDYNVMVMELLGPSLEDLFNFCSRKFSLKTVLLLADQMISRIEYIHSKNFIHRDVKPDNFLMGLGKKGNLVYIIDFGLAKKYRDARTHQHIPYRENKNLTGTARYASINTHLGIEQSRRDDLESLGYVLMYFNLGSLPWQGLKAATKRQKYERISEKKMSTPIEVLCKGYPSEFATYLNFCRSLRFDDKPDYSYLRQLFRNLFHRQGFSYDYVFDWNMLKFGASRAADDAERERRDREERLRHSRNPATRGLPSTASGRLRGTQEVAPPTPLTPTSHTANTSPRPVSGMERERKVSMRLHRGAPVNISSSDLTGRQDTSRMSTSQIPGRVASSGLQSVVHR
Sequence of Cyclin-dependent kinase 4 (P11802 whole entry): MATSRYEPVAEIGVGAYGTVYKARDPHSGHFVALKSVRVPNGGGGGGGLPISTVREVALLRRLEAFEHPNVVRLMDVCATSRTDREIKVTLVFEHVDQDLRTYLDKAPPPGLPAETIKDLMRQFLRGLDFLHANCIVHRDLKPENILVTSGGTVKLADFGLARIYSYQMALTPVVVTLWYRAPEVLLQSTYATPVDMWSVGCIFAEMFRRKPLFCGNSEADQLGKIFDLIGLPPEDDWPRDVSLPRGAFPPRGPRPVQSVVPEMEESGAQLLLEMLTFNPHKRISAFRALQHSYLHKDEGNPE
Sequence of Protein-tyrosine kinase 2-beta (Q14289 whole entry): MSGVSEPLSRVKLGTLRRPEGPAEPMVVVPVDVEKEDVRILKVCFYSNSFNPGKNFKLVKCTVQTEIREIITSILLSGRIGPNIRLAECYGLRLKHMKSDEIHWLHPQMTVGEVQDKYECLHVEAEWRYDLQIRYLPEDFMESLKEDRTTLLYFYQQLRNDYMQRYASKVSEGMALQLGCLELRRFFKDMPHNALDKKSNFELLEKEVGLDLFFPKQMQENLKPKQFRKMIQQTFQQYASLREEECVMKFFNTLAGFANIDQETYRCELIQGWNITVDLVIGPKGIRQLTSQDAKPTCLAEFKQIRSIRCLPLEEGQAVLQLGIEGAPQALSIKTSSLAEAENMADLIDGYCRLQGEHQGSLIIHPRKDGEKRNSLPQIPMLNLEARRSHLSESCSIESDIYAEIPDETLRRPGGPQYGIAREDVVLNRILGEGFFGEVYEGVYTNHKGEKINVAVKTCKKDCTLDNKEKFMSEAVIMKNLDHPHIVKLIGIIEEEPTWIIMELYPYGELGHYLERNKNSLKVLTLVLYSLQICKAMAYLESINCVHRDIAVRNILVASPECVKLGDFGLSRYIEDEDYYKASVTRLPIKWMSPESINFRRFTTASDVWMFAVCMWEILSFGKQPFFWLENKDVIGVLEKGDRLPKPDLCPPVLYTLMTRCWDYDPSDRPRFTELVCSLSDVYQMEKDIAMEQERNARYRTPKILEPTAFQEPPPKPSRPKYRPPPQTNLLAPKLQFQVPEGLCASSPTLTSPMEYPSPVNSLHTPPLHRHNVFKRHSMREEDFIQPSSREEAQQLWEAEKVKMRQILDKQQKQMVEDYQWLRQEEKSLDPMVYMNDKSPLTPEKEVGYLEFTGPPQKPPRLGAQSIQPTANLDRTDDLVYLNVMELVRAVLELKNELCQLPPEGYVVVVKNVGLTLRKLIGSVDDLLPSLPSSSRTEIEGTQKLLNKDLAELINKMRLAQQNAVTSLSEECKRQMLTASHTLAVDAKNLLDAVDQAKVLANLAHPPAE
Sequence of Ephrin type-A receptor 7 (Q15375 whole entry): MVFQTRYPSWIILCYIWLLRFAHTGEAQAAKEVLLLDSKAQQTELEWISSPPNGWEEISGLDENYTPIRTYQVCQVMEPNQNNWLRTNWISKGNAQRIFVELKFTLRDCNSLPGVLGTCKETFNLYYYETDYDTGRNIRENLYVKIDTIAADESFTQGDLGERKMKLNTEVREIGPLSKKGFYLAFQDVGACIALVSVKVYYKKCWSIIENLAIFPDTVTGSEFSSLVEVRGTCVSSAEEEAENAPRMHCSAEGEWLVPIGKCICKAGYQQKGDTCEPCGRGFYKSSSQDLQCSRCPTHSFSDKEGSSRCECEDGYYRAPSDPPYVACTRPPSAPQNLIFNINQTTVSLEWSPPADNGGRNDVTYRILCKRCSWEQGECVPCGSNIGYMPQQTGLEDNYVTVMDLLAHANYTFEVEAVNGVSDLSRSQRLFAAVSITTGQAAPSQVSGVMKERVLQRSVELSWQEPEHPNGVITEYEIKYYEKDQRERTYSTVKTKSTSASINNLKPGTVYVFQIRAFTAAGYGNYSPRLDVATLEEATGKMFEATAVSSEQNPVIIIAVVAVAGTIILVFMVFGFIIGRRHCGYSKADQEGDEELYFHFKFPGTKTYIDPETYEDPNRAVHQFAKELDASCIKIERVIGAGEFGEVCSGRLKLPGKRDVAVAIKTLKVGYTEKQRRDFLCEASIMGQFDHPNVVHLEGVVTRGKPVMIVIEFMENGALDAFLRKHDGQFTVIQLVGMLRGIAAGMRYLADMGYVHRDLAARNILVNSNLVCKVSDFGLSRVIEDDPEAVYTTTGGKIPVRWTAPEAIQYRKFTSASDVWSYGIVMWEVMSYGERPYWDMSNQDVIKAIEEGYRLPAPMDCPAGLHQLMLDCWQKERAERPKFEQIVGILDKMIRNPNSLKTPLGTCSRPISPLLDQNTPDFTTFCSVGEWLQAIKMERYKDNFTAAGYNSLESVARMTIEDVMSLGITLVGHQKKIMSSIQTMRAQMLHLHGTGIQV
Sequence of Glycogen synthase kinase-3 alpha (P49840 whole entry): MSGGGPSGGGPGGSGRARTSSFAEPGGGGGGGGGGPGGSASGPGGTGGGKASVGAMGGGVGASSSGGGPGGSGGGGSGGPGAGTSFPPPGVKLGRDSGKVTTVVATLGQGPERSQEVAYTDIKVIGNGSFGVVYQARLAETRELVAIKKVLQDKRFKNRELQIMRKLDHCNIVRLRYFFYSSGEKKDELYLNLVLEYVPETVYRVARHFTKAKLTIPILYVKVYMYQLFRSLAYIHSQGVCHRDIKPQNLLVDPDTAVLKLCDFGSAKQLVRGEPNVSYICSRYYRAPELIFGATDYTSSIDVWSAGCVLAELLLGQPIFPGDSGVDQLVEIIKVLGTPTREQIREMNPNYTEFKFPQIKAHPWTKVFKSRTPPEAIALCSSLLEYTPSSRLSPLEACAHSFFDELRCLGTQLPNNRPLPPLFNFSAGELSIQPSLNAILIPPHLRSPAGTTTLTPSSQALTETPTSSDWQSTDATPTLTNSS
Sequence of DNA topoisomerase 2-beta (Q02880 whole entry): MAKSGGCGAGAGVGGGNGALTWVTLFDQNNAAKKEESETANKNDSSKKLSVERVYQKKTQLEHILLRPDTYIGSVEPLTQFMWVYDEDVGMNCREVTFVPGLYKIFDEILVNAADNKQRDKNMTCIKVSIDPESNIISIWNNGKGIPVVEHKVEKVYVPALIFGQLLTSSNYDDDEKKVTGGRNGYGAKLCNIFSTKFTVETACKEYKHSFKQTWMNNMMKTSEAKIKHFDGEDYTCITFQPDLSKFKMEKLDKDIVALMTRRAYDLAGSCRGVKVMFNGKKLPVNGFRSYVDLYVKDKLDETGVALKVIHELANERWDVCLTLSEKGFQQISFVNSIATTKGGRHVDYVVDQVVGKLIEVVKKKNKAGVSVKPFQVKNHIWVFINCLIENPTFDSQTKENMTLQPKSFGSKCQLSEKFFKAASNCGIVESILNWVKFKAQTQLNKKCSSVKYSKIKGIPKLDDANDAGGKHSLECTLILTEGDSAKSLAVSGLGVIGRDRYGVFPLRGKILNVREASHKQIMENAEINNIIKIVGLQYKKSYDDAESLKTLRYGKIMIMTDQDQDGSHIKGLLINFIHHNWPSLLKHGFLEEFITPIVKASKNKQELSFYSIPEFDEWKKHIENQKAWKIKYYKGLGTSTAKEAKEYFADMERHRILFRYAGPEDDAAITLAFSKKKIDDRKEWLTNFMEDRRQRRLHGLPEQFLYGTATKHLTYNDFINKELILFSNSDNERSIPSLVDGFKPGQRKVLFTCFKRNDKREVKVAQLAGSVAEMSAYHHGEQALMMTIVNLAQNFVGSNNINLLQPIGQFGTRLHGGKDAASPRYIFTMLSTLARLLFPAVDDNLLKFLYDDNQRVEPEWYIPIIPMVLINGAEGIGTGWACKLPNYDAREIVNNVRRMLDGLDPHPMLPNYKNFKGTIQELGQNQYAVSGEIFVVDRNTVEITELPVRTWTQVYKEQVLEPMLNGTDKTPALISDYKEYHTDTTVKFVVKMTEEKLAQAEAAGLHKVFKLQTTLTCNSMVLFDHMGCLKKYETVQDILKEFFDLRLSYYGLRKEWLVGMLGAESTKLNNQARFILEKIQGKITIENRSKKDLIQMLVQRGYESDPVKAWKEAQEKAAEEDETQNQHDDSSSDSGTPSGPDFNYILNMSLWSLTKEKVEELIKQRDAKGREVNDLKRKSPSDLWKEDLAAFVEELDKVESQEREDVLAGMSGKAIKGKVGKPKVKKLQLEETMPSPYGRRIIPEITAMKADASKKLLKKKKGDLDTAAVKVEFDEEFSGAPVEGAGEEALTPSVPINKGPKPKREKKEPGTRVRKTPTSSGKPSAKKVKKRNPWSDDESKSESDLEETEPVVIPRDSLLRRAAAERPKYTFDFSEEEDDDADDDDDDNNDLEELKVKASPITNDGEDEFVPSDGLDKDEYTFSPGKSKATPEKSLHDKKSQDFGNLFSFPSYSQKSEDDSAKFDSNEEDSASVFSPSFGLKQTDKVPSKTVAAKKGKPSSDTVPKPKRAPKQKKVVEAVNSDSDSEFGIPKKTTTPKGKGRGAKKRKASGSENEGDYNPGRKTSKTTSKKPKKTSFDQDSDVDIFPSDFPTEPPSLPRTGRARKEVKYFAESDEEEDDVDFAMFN
Sequence of Ras-related protein Rab-6A (P20340 whole entry): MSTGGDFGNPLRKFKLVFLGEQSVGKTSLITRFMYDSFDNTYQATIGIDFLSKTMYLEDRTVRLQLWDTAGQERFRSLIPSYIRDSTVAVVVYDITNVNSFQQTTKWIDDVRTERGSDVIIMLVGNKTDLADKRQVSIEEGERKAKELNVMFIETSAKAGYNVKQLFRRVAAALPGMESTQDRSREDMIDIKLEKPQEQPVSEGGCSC

| SMILES | Kd [1] | Kd [2] | Kd [3] | Kd [4] | Kd [5] | Kd [6] | Kd [7] | Kd [8] | Kd [9] | Kd [10] | Kd [11] |
| --- | --- | --- | --- | --- | --- | --- | --- | --- | --- | --- | --- |
| O[C@H]1CC[C@H](Nc2ncc3nc(Nc4c(F)cc(F)cc4F)n([C@H]4CCOC4)c3n2)CC1 [TANZISERTIB] | > 30 µM (inactive) | > 30 µM (inactive) | > 30 µM (inactive) | > 30 µM (inactive) | > 30 µM (inactive) | > 30 µM (inactive) | > 30 µM (inactive) | > 30 µM (inactive) | > 30 µM (inactive) | > 30 µM (inactive) | > 30 µM (inactive) |
| Cc1ccc(C(=O)Nc2ccc(Oc3cc4cnn(C)c4cc3-c3cn[nH]c3)c(F)c2)c(=O)n1-c1ccc(F)cc1 [MERESTINIB] | > 30 µM (inactive) | > 30 µM (inactive) | > 30 µM (inactive) | > 30 µM (inactive) | > 30 µM (inactive) | > 30 µM (inactive) | > 30 µM (inactive) | > 30 µM (inactive) | > 30 µM (inactive) | > 30 µM (inactive) | > 30 µM (inactive) |
| Cn1cc(-c2[nH]c3cc(NC(=O)[C@H](N)C4CCCCC4)cc4c3c2C=NNC4=O)cn1 | > 30 µM (inactive) | > 30 µM (inactive) | > 30 µM (inactive) | > 30 µM (inactive) | > 30 µM (inactive) | > 30 µM (inactive) | > 30 µM (inactive) | > 30 µM (inactive) | > 30 µM (inactive) | > 30 µM (inactive) | > 30 µM (inactive) |
| C=CC(=O)Nc1cc(Nc2nccc(-c3cn(C)c4ccccc34)n2)c(OC)cc1N(C)CCN(C)C [OSIMERTINIB] | > 30 µM (inactive) | > 30 µM (inactive) | > 30 µM (inactive) | > 30 µM (inactive) | > 30 µM (inactive) | > 30 µM (inactive) | > 30 µM (inactive) | > 30 µM (inactive) | > 30 µM (inactive) | > 30 µM (inactive) | > 30 µM (inactive) |
| Cc1cc(-c2cc(OC(=O)c3ccccc3)ccc2Cl)cc2nnc(Nc3ccc(OCCN4CCCC4)cc3)nc12 [TG100-801] | > 30 µM (inactive) | 0.711 µM (active) | > 30 µM (inactive) | > 30 µM (inactive) | > 30 µM (inactive) | > 30 µM (inactive) | > 30 µM (inactive) | > 30 µM (inactive) | > 30 µM (inactive) | > 30 µM (inactive) | > 30 µM (inactive) |
| CNC(=O)c1ccc(Nc2ncc(C(F)(F)F)c(NCc3nccnc3N(C)S(C)(=O)=O)n2)cc1 [DEFACTINIB] | 0.423 µM (active) | > 30 µM (inactive) | 1.46 µM (active) | > 30 µM (inactive) | > 30 µM (inactive) | > 30 µM (inactive) | > 30 µM (inactive) | 9.12 µM (active) | > 30 µM (inactive) | > 30 µM (inactive) | > 30 µM (inactive) |
| CN1CCN(c2nc(C3=C(c4c[nH]c5ccccc45)C(=O)NC3=O)c3ccccc3n2)CC1 [SOTRASTAURIN] | > 30 µM (inactive) | > 30 µM (inactive) | 1.2 µM (active) | > 30 µM (inactive) | > 30 µM (inactive) | > 30 µM (inactive) | > 30 µM (inactive) | > 30 µM (inactive) | > 30 µM (inactive) | > 30 µM (inactive) | > 30 µM (inactive) |

More lines, now with the values ahead:

| Kd [1] | Kd [2] | Kd [3] | Kd [4] | Kd [5] | Kd [6] | Kd [7] | Kd [8] | Kd [9] | Kd [10] | Kd [11] | SMILES |
| --- | --- | --- | --- | --- | --- | --- | --- | --- | --- | --- | --- |
| > 30 µM (inactive) | > 30 µM (inactive) | > 30 µM (inactive) | > 30 µM (inactive) | > 30 µM (inactive) | > 30 µM (inactive) | > 30 µM (inactive) | > 30 µM (inactive) | > 30 µM (inactive) | > 30 µM (inactive) | > 30 µM (inactive) | CCOc1ccn(-c2ccc(F)cc2)c(=O)c1C(=O)Nc1ccc(Oc2ccnc(N)c2Cl)c(F)c1 [BMS-777607] |
| > 30 µM (inactive) | > 30 µM (inactive) | > 30 µM (inactive) | > 30 µM (inactive) | > 30 µM (inactive) | > 30 µM (inactive) | > 30 µM (inactive) | > 30 µM (inactive) | > 30 µM (inactive) | > 30 µM (inactive) | > 30 µM (inactive) | COc1cccc2cc(-c3nc([C@H]4CC[C@H](C(=O)O)CC4)n4ncnc(N)c34)[nH]c12 [OSI-027] |
| > 30 µM (inactive) | > 30 µM (inactive) | > 30 µM (inactive) | > 30 µM (inactive) | > 30 µM (inactive) | > 30 µM (inactive) | > 30 µM (inactive) | > 30 µM (inactive) | > 30 µM (inactive) | > 30 µM (inactive) | > 30 µM (inactive) | Cc1cc(C(=O)Nc2cc(Oc3ccc4nc(NC(=O)C5CC5)cn4n3)ccc2C)n(C)n1 [TAK-593] |
| > 30 µM (inactive) | > 30 µM (inactive) | > 30 µM (inactive) | > 30 µM (inactive) | > 30 µM (inactive) | > 30 µM (inactive) | > 30 µM (inactive) | > 30 µM (inactive) | > 30 µM (inactive) | > 30 µM (inactive) | > 30 µM (inactive) | NC(=O)c1ccc(N(C(N)=O)c2c(F)cccc2F)nc1-c1ccc(F)cc1F [VX-702] |
